Data: patent EP4385979A1 (Grünenthal GmbH, priority 2022, dated 2024)

Target: T1, human NaV1.8 (Homo sapiens, UniProt Q9Y5Y9)
T1 construct: expressed in transfected cells; host or cells: HEK
Test: Electrophysiology: voltage-clamp recordings, whole-cell patch clamp on Qube384 automated platform
Assay type: cell-based
Conditions: HEK-NaV1.8 (NM 006514.1) with b3 recombinant cell line, multi hole plates, ambient room temperature, read-out: Potency category (human NaV1.8 IC50)
Description: Electrophysiology: Voltage-Clamp recordings
The following NaV1.8 recombinant cell line was used for recordings: HEK-NaV1.8 (NM 006514.1) with b3 (NM_018400.3).
Sodium currents were measured using the patch clamp technique in the whole-cell configuration using the Qube384 (Sophion A/S, Copenhagen, Denmark) automated voltage clamp platform. "Multi hole" plates were used for the cell line expressing NaV1.8 while "single hole" plates were used for the recombinant cell lines expressing the other subtypes. Appropriate filters (for minimum seal resistance and minimum current size) and series resistance compensation (for high quality sodium channel recordings) were applied. Data was collected at ambient room temperature.
The recording […] solution contained (in mM): NaCl 145 mM, KCl 4 mM, CaCl2 2 mM, MgCl2 1 mM, HEPES 10 mM, Glucose 10 mM, pH 7.4 (NaOH). The […] recording solution contained (in mM): CsF 120 mM, CsCl 20 mM, NaCl 10 mM, EGTA 10 mM, HEPES 10 mM, pH 7.2 (CsOH). Currents were recorded at 25 kHz sampling frequency and filtered at 5 kHz. Series resistance compensation was applied at 65%.
Vehicle (VEH) is the control condition where cells are exposed to 0.3 % DMSO without compound. All runs include VEH controls being exposed to the same voltage protocols to assess non-compound related phenomena such as run down and then used to isolate compound dependent effects on currents.
To check for state-dependence inhibition, the following voltage-sequence was applied every 20 seconds: From a resting membrane potential of-120 mV, the first test pulse (P1; 20 ms to -10 mV) was applied to check for channels in the Resting State followed by a brief recovery (20 ms to -120 mV), then holding the membrane voltage to V1/2 (4 seconds at voltage to obtain half the channel at Rest and half Inactivated) with a subsequent second test pulse (P2; 20 ms to -10 mV) to check for channels in the Inactivated State, followed by another brief recovery (20 ms to -120 mV) and a final third test pulse (P3; 20 ms to -10 mV) to check for recovered channels.
To check for frequency-dependent inhibition, a 10 Hz protocol and a 20 Hz protocol were applied; namely,
From a resting membrane potential of -120 mV, 40-pulses (10 ms to -10 mV) was applied at 10 Hz (at 100 ms between pulses) and then at 20 Hz (at 50 ms between pulses). Each parameter was recorded (P1, P2, P3, P40 from 10Hz and P40 from 20Hz) during a control period (lasting ~ 5 minutes) when establishing the baseline and during compound period (lasting ~ 12 minutes) when test compound (or vehicle) was applied. For each parameter, the value at the end of the compound period was normalized to the vehicle baseline; as follows Normalized Inhibition (NormCPD) = (CPD Valueend CPD period)/(VEH Valueend Control Period) [formula]
To adjust for any variance in the Na^+ current signal during the compound period (owing to cumulative inactivation independent of compound or shifts in biophysics over time), a dedicated segment of the recording wells in each 384 plate were dedicated to having only vehicle exposure. These vehicle-only recordings were used to correct for any apparent "run-up" or "run-down" in the experiment. Normalized Inhibition (NormVEH) = (VEH Valueend CPD period)/(VEH Valueend Control Period) [formula]
The adjusted inhibition was calculated as follows: % Inhibitioncorrected = 100 × (NormCPD −NormVEH)/(100−NormVEH) [formula]
Percent inhibition was determined and IC50 values were calculated using a 4 parameter logistic model within XLFit Software (IDBS, Boston MA): % Inhibitioncorrected = A + ((B−A))/((1 + (((x)/(C)))^D) [formula] where A and B are the maximal and minimum inhibition respectively, C is the IC50 concentration and D is the (Hill) slope.

T1 sequence (Q9Y5Y9 whole entry): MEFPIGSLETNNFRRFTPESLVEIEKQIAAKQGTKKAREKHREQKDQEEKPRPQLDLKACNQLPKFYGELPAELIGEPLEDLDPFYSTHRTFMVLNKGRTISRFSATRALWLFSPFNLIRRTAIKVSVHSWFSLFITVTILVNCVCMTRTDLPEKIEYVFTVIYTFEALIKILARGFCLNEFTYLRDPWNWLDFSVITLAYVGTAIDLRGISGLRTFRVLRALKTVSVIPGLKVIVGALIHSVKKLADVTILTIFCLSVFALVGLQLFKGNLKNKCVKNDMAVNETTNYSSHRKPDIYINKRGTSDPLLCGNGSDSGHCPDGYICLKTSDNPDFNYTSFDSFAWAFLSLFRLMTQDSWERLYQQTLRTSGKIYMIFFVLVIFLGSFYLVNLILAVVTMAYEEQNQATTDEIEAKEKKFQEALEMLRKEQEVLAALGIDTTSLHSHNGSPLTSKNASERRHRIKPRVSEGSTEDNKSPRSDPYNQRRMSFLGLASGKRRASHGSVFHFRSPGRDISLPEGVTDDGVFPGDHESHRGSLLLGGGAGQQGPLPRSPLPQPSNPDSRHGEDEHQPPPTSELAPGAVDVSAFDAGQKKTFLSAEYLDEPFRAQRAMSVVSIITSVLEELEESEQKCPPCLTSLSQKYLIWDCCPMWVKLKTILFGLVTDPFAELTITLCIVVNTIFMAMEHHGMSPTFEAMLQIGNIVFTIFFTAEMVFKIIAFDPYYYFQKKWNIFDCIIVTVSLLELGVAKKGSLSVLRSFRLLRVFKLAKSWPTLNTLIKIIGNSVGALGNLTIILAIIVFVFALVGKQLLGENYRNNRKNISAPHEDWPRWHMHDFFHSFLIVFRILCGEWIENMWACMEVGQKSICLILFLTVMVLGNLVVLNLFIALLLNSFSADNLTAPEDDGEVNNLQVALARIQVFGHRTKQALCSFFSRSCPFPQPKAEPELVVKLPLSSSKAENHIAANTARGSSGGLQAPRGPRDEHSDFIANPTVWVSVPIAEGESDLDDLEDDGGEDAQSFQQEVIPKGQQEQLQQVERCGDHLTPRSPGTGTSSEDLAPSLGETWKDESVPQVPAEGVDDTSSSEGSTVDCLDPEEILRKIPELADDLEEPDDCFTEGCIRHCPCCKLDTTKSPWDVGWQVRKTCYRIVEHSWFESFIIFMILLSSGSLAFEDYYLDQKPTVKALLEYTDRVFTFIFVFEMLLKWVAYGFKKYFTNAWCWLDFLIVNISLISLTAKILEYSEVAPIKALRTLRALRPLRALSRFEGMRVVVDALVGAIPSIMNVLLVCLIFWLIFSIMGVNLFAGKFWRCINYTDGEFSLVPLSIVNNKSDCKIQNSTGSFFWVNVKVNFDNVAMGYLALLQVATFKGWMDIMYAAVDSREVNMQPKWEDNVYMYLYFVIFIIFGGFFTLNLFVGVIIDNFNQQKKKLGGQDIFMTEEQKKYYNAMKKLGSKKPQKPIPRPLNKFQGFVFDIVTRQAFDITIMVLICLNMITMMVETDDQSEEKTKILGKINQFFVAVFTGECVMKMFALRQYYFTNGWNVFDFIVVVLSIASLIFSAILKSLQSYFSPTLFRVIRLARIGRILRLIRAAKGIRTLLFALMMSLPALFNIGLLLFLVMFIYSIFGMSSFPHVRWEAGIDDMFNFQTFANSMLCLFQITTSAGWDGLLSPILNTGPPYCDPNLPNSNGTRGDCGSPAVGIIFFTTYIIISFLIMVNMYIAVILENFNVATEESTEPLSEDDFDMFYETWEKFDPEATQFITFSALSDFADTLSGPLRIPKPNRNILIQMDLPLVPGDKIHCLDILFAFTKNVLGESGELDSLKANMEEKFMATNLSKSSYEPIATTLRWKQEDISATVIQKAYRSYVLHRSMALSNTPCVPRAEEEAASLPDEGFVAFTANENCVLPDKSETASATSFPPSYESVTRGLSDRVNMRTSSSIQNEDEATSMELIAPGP

Row | Compound | IC50 [nM]
1 | CC12CC(Cn3nc(C4CC4)c(C(F)(F)F)c3C(=O)Nc3ccnc(S(C)(=O)=O)c3)(CO1)C2 [Example 23, 3-cyclopropyl-1-((1-methyl-2-oxabicyclo[2.1.1]hexan-4-yl)methyl)-N-(2-(methylsulfonyl)pyridin-4-yl)-4-(trifluoromethyl)-1H-pyrazole-5-carboxamide] | 100 to 1000
2 | CS(=O)(=O)c1cc(NC(=O)c2c(C(F)(F)F)c(C3CC3)nn2CC23CC(CO2)C3)ccn1 [Example 24, 1-((2-oxabicyclo[2.1.1]hexan-1-yl)methyl)-3-cyclopropyl-N-(2-(methylsulfonyl)pyridin-4-yl)-4-(trifluoromethyl)-1H-pyrazole-5-carboxamide] | 100 to 1000
3 | CC12CC(Cn3ncc(C(F)(F)F)c3C(=O)Nc3cccc(S(N)(=O)=O)c3)(CO1)C2 [Example 31, 1-((1-methyl-2-oxabicyclo[2.1.1]hexan-4-yl)methyl)-N-(3-sulfamoylphenyl)-4-(trifluoromethyl)-1H-pyrazole-5-carboxamide] | 1000 to 10000
4 | NS(=O)(=O)c1cccc(NC(=O)c2c(C(F)(F)F)cnn2CC23CC(C2)C3)c1 [Example 32, 1-(bicyclo [1.1.1]pentan-1-ylmethyl)-N-(3-sulfamoylphenyl)-4-(trifluoromethyl)-1H-pyrazole-5-carboxamide] | 100 to 1000
5 | NS(=O)(=O)c1cccc(NC(=O)c2c(C(F)(F)F)cnn2CC2CC3(CC3)C2)c1 [Example 34, 1-(spiro[2.3]hexan-5-ylmethyl)-N-(3-sulfamoylphenyl)-4-(trifluoromethyl)-1H-pyrazole-5-carboxamide] | 100 to 1000
6 | NC(=O)c1cc(NC(=O)c2c(C(F)(F)F)cnn2CC23CC(CO2)C3)ccc1F [Example 37, 1-((2-oxabicyclo[2.1.1]hexan-1-yl)methyl)-N-(3-carbamoyl-4-fluorophenyl)-4-(trifluoromethyl)-1H-pyrazole-5-carboxamide] | 1000 to 10000
7 | NC(=O)c1cc(NC(=O)c2c(C(F)(F)F)cnn2CC23CC(C2)C3)ccc1F [Example 38, 1-(bicyclo[1.1.1]pentan-1-ylmethyl)-N-(3-carbamoyl-4-fluorophenyl)-4-(trifluoromethyl)-1H-pyrazole-5-carboxamide] | 1000 to 10000
8 | Cc1nn(CC23CC(C2)C3)c(C(=O)Nc2ccc(F)c(C(N)=O)c2)c1C(F)(F)F [Example 40, 1-(bicyclo[1.1.1]pentan-1-ylmethyl)-N-(3-carbamoyl-4-fluorophenyl)-3-methyl-4-(trifluoromethyl)-1H-pyrazole-5-carboxamide] | 100 to 1000
9 | NC(=O)c1cc(NC(=O)c2c(C(F)(F)F)cnn2CC2CC3(CC3)C2)ccc1F [Example 41, N-(3-carbamoyl-4-fluorophenyl)-1-(spiro[2.3]hexan-5-ylmethyl)-4-(trifluoromethyl)-1H-pyrazole-5-carboxamide] | 100 to 1000
10 | NC(=O)c1cc(NC(=O)c2c(C(F)(F)F)cnn2CC23CCC(C2)C3)ccc1F [Example 42, 1-(bicyclo[2.1.1]hexan-1-ylmethyl)-N-(3-carbamoyl-4-fluorophenyl)-4-(trifluoromethyl)-1H-pyrazole-5-carboxamide] | ≤ 100

Now from value to compound:

Row | IC50 [nM] | Compound
11 | ≤ 100 | Cc1c(C(C)(F)F)nn(CC23CC(C(F)(F)F)(C2)C3)c1C(=O)Nc1ccnc(S(C)(=O)=O)c1 [Example 25, 3-(1,1-difluoroethyl)-4-methyl-N-(2-(methylsulfonyl)pyridin-4-yl)-1-((3-(trifluoromethyl)bicyclo[1.1.1]pentan-1yl)methyl)-1H-pyrazole-5-carboxamide]
12 | 100 to 1000 | Cc1nn(CC23CC(C(F)(F)F)(C2)C3)c(C(=O)Nc2ccnc(S(C)(=O)=O)c2)c1C(F)(F)F [Example 26, 3-methyl-N-(2-(methylsulfonyl)pyridin-4-yl)-4-(trifluoromethyl)-1-((3-(trifluoromethyl)bicyclo[1.1.1]pentan-1yl)methyl)-1H-pyrazole-5-carboxamide]
13 | 100 to 1000 | Cc1c(C(F)(F)F)nn(CC23CC(C(F)(F)F)(C2)C3)c1C(=O)Nc1ccnc(S(C)(=O)=O)c1 [Example 27, 4-methyl-N-(2-(methylsulfonyl)pyridin-4-yl)-3-(trifluoromethyl)-1-((3-(trifluoromethyl)bicyclo[1.1.1]pentan-1yl)methyl)-1H-pyrazole-5-carboxamide]
14 | ≤ 100 | CS(=O)(=O)c1cc(NC(=O)c2c(C(F)(F)F)c(C3CC3)nn2CC23CC(C(F)(F)F)(C2)C3)ccn1 [Example 28, 3-cyclopropyl-N-(2-(methylsulfonyl)pyridin-4-yl)-4-(trifluoromethyl)-1-((3-(trifluoromethyl)bicyclo[1.1.1]pentan-1yl)methyl)-1H-pyrazole-5-carboxamide]
15 | 1000 to 10000 | NS(=O)(=O)c1cccc(NC(=O)c2c(C(F)(F)F)cnn2CC23CC(CO2)C3)c1 [Example 30, 1-((2-oxabicyclo[2.1.1]hexan-1-yl)methyl)-N-(3-sulfamoylphenyl)-4-(trifluoromethyl)-1H-pyrazole-5-carboxamide]
16 | 1000 to 10000 | Cc1nn(CC23CC(CO2)C3)c(C(=O)Nc2cccc(S(N)(=O)=O)c2)c1C(F)(F)F [Example 33, 1-((2-oxabicyclo [2.1.1]hexan-1-yl)methyl)-3-methyl-N-(3-sulfamoylphenyl)-4-(trifluoromethyl)-1H-pyrazole-5-carboxamide]
17 | ≤ 100 | NS(=O)(=O)c1cccc(NC(=O)c2c(C(F)(F)F)cnn2CC23CCC(C2)C3)c1 [Example 35, 1-(bicyclo[2.1.1]hexan-1-ylmethyl)-N-(3-sulfamoylphenyl)-4-(trifluoromethyl)-1H-pyrazole-5-carboxamide]
18 | ≤ 100 | Cc1nn(CC23CCC(C2)C3)c(C(=O)Nc2ccc(F)c(C(N)=O)c2)c1C(F)(F)F [Example 36, 1-(bicyclo[2.1.1]hexan-1-ylmethyl)-N-(3-carbamoyl-4-fluorophenyl)-3-methyl-4-(trifluoromethyl)-1H-pyrazole-5-carboxamide]
19 | 100 to 1000 | Cc1nn(CC23CC(CO2)C3)c(C(=O)Nc2ccc(F)c(C(N)=O)c2)c1C(F)(F)F [Example 39, 1-((2-oxabicyclo[2.1.1]hexan-1-yl)methyl)-N-(3-carbamoyl-4-fluorophenyl)-3-methyl-4-(trifluoromethyl)-1H-pyrazole-5-carboxamide]
20 | 1000 to 10000 | CS(=O)(=O)n1cc(NC(=O)c2c(C(F)(F)F)cnn2CC23CC(C2)C3)cn1 [Example 47, 1-(bicyclo [1.1.1]pentan-1-ylmethyl)-N-(1-(methylsulfonyl)-1H-pyrazol-4-yl)-4-(trifluoromethyl)-1H-pyrazole-5-carboxamide]
21 | 1000 to 10000 | CS(=O)(=O)n1cc(NC(=O)c2c(C(F)(F)F)cnn2CC2CC3(CC3)C2)cn1 [Example 48, N-(1-(methylsulfonyl)-1H-pyrazol-4-yl)-1-(spiro[2.3]hexan-5-ylmethyl)-4-(trifluoromethyl)-1H-pyrazole-5-carboxamide]
22 | 100 to 1000 | CS(=O)(=O)n1cc(NC(=O)c2c(C(F)(F)F)cnn2CC23CCC(C2)C3)cn1 [Example 49, 1-(bicyclo[2.1.1]hexan-1ylmethyl)-N-(1-(methylsulfonyl)-1H-pyrazol-4-yl)-4-(trifluoromethyl)-1H-pyrazole-5-carboxamide]
